Measurements taken from patent publication US20220267298A1 (priority 2019, published 2022).
Values joined by “and” are separate entries in the source; they are usually repeats but may differ in a detail not shown here. Equal entries are not always repeated.

Target: T1, GRK2 (Homo sapiens, UniProt P25098)
T1 sequence (P25098 1-689): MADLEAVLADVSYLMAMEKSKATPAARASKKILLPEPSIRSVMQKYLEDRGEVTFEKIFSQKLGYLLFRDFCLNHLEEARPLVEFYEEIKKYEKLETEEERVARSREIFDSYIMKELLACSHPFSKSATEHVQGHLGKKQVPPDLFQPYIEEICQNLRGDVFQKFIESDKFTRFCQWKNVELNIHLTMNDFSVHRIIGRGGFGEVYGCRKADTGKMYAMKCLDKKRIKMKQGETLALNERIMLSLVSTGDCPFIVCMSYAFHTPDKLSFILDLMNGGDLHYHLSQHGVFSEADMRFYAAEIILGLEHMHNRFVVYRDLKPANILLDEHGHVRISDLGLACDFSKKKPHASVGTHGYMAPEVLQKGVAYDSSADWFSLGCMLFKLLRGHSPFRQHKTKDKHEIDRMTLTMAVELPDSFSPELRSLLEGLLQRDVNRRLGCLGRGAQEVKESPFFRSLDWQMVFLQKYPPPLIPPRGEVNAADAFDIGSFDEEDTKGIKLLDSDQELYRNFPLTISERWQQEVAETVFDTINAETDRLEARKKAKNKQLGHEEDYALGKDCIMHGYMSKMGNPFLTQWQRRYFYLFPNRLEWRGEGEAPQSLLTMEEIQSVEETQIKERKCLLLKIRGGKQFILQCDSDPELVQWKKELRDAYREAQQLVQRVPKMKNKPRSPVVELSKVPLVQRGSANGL
Assay: biochemical
Details: GRK2 IC50 (μM), 10 nM GRK2; 10 uM ATP

Structure (SMILES)	IC50
CC(c1cccc(OCCS(C)(=O)=O)c1)n1cnc2ccc(-c3cn[nH]c3)cc2c1=O (stereo not shown) [Compound 17, 3-(1-(3-(2-(Methylsulfonyl)ethoxy)phenyl)ethyl)-6-(1H-pyrazol-4-yl)quinazolin-4(3H)-one]	1.31 µM
COc1cccc(C(C)n2cnc3ccc(-c4c[nH]nc4N)cc3c2=O)c1 (stereo not shown) [Compound 19, 6-(3-Amino-1H-pyrazol-4-yl)-3-[1-(3-methoxyphenyl)ethyl]quinazolin-4-one]	> 50 µM
COc1cccc(Cn2c(C)nc3ccc(-c4cn[nH]c4)cc3c2=O)c1 [Compound 20, 3-[(3-Methoxyphenyl)methyl]-2-methyl-6-(1H-pyrazol-4-yl)quinazolin-4-one]	0.014 µM
O=C(O)COc1cccc(Cn2cnc3ccc(-c4cn[nH]c4)cc3c2=O)c1 [Compound 27, 2-[3-[[4-Oxo-6-(1H-pyrazol-4-yl)quinazolin-3-yl]methyl]phenoxy]acetic acid]	0.088 µM
O=c1c2cc(-c3cn[nH]c3)ccc2ncn1Cc1cccc(-c2ncco2)c1 [Compound 28, 3-(3-(Oxazol-2-yl)benzyl)-6-(1H-pyrazol-4-yl)quinazolin-4(3H)-one]	0.446 µM
COc1cccc(C(CCN(C)C)n2cnc3ccc(-c4cn[nH]c4)cc3c2=O)c1 (stereo not shown) [Compound 29, 3-(3-(Dimethylamino)-1-(3-methoxyphenyl)propyl)-6-(1H-pyrazol-4-yl)quinazolin-4(3H)-one]	0.054 µM
CC(c1cccc(O)c1)n1cnc2ccc(-c3cn[nH]c3)cc2c1=O (stereo not shown) [Compound 31, 3-[1-(3-Hydroxyphenyl)ethyl]-6-(1H-pyrazol-4-yl)quinazolin-4-one]	0.008 µM
COc1cccc(C(CCO)n2cnc3ccc(-c4cn[nH]c4)cc3c2=O)c1 (stereo not shown) [Compound 32, 3-(3-Hydroxy-1-(3-methoxyphenyl)propyl)-6-(1H-pyrazol-4-yl)quinazolin-4(3H)-one]	0.157 µM
NS(=O)(=O)c1cccc(Cn2cnc3ccc(-c4cn[nH]c4)cc3c2=O)c1 [Compound 34, 3-[[4-Oxo-6-(1H-pyrazol-4-yl)quinazolin-3-yl]methyl]benzenesulfonamide]	0.03 µM
COc1ccc(F)cc1Cn1cnc2ccc(-c3cn[nH]c3)cc2c1=O [Compound 40, 3-[(5-Fluoro-2-methoxy-phenyl)methyl]-6-(1H-pyrazol-4-yl)quinazolin-4-one]	1.72 µM
COc1cccc(Cn2cnc3ccc(-c4ccnc(N)n4)cc3c2=O)c1 [Compound 45, 6-(2-Aminopyrimidin-4-yl)-3-[(3-methoxyphenyl)methyl]quinazolin-4-one]	0.271 µM
COc1cccc(Cn2cnc3ccc(-c4cn[nH]c(=O)c4)cc3c2=O)c1 [Compound 46, 3-[(3-Methoxyphenyl)methyl]-6-(6-oxo-1H-pyridazin-4-yl)quinazolin-4-one]	1.46 µM
COc1cccc(Cn2cnc3ccc(-c4nn[nH]n4)cc3c2=O)c1 [Compound 48, 3-[(3-Methoxyphenyl)methyl]-6-(2H-tetrazol-5-yl)quinazolin-4-one]	> 50 µM
O=c1c2cc(-c3cccnc3)ccc2ncn1Cc1cccc(Cl)c1 [Compound 49, 3-[(3-Chlorophenyl)methyl]-6-(3-pyridyl)quinazolin-4-one]	> 50 µM
O=c1c2cc(-c3cn[nH]c3)ccc2ncn1Cc1cccc(Cl)c1 [Compound 50, 3-[(3-Chlorophenyl)methyl]-6-(1H-pyrazol-4-yl)quinazolin-4-one]	0.075 µM

Other lines, results leading:

IC50	Structure (SMILES)
5.59 µM	CCOc1cccc(C(CS(C)(=O)=O)n2cnc3ccc(-c4cn[nH]c4)cc3c2=O)c1 (stereo not shown) [Compound 15, 3-(1-(3-Ethoxyphenyl)-2-(methylsulfonyl)ethyl)-6-(1H-pyrazol-4-yl)quinazolin-4(3H)-one]
0.425 µM	COc1cccc(Cn2c(C(F)(F)F)nc3ccc(-c4cn[nH]c4)cc3c2=O)c1 [Compound 21, 3-[(3-Methoxyphenyl)methyl]-6-(1H-pyrazol-4-yl)-2-(trifluoromethyl)quinazolin-4-one]
4.11 µM	COc1cccc(C(C2CCS(=O)(=O)CC2)n2cnc3ccc(-c4cn[nH]c4)cc3c2=O)c1 (stereo not shown) [Compound 22, 3-((1,1-Dioxidotetrahydro-2H-thiopyran-4-yl)(3-methoxyphenyl)methyl)-6-(1H-pyrazol-4-yl)quinazolin-4(3H)-one]
0.035 µM	[2H]C([2H])(Oc1cccc([C@@H](C)n2cnc3ccc(-c4cn[nH]c4)cc3c2=O)c1)C(=O)NC1CC1 [Compound 23, N-Cyclopropyl-2,2-dideuterio-2-[3-[(1R)-1-[4-oxo-6-(1H-pyrazol-4-yl)quinazolin-3-yl]ethyl]phenoxy]acetamide]
0.096 µM	CC(c1cccc(C(=O)NC2CN(C)C2)c1)n1cnc2ccc(-c3cn[nH]c3)cc2c1=O (stereo not shown) [Compound 24, N-(1-Methylazetidin-3-yl)-3-[1-[4-oxo-6-(1H-pyrazol-4-yl)quinazolin-3-yl]ethyl]benzamide]
2.34 µM	Cc1nc2ccc(-c3cn[nH]c3)cc2c(=O)n1Cc1cccc(OC2CN(C)C2)c1 [Compound 25, 2-Methyl-3-(3-((1-methylazetidin-3-yl)oxy)benzyl)-6-(1H-pyrazol-4-yl)quinazolin-4(3H)-one]
0.143 µM	[2H]C([2H])(Oc1cccc([C@@H](C)n2cnc3ccc(-c4cn[nH]c4)cc3c2=O)c1)C(=O)O [Compound 26, 2,2-Dideuterio-2-[3-[(1R)-1-[4-oxo-6-(1H-pyrazol-4-yl)quinazolin-3-yl]ethyl]phenoxy]acetic Acid]
0.033 µM	CC(c1cccc(NS(C)(=O)=O)c1)n1cnc2ccc(-c3cn[nH]c3)cc2c1=O (stereo not shown) [Compound 33, N-[3-[1-[4-Oxo-6-(1H-pyrazol-4-yl)quinazolin-3-yl]ethyl]phenyl]methanesulfonamide]
0.122 µM	CCC(c1cccc(OC)c1)n1cnc2ccc(-c3cn[nH]c3)cc2c1=O (stereo not shown) [Compound 35, 3-[1-(3-Methoxyphenyl)propyl]-6-(1H-pyrazol-4-yl)quinazolin-4-one]
0.066 µM	COc1cccc(Cn2cnc3ccc(-c4c[nH]nc4C)cc3c2=O)c1 [Compound 37, 3-[(3-Methoxyphenyl)methyl]-6-(3-methyl-1H-pyrazol-4-yl)quinazolin-4-one]
0.129 µM	COc1cccc(Cn2cnc3ccc(-n4cn[nH]c4=O)cc3c2=O)c1 [Compound 38, 3-[(3-Methoxyphenyl)methyl]-6-(5-oxo-1H-1,2,4-triazol-4-yl)quinazolin-4-one]
0.009 µM and 0.017 µM	COc1cccc([C@@H](C)n2cnc3ccc(-c4cn[nH]c4)cc3c2=O)c1 [Compound 39, 3-[(1R)-1-(3-Methoxyphenyl)ethyl]-6-(1H-pyrazol-4-yl)quinazolin-4-one]
0.065 µM	CC(=O)c1cccc(Cn2cnc3ccc(-c4cn[nH]c4)cc3c2=O)c1 [Compound 41, 3-[(3-Acetylphenyl)methyl]-6-(1H-pyrazol-4-yl)quinazolin-4-one]
0.025 µM	COc1cccc(C(CO)n2cnc3ccc(-c4cn[nH]c4)cc3c2=O)c1 (stereo not shown) [Compound 42, 3-[2-Hydroxy-1-(3-methoxyphenyl)ethyl]-6-(1H-pyrazol-4-yl)quinazolin-4-one]
0.757 µM	COc1cccc(Cn2cnc3ccc(-c4c[nH]c5ncccc45)cc3c2=O)c1 [Compound 43, 3-[(3-Methoxyphenyl)methyl]-6-(1H-pyrrolo[2,3-b]pyridin-3-yl)quinazolin-4-one]
0.1 µM	COc1cccc(Cn2cnc3ccc(-c4cn[nH]n4)cc3c2=O)c1 [Compound 44, 3-[(3-Methoxyphenyl)methyl]-6-(2H-triazol-4-yl)quinazolin-4-one]
